Source: patent US8383637B2, “2-amino-quinazoline derivatives useful as inhibitors of β-secretase (BACE)” (Jansssen Pharmaceutica N.V., priority 2004, dated 2013)
Like-named read-outs stand apart in the source and are kept apart here.

Target: T1, β-secretase(BACE) (Homo sapiens, UniProt P56817)
T1 construct: purchased Panvera
Test: BACE FS1% Inhibition Assay
Assay type: biochemical
Settings: FS1 substrate
Method: BACE FS1% Inhibition Assay The following reagents were used in this assay: sodium acetate, PEG8000 (Sigma), DMSO, HEPES, FS1 substrate [[…]] […] The FS1-substrate stock solution was prepared in DMSO as a 10 mg/mL solution. The FS1-substrate working solution was prepared by diluting the 10 mg/mL stock solution with substrate assay buffer to a final concentration of 300 μg/mL. The β-secretase (BACE) working solution was prepared by diluting a 0.83 mg/mL BACE stock solution with enzyme assay buffer to a final concentration of 4 μg/mL. Test compounds were dissolved in DMSO to 10 mM. […] The screening procedure for this assay was as follows: 15 μL of BACE working solution was pipetted into each well of a 96-well plate. To each well was then pipetted 2 μL of test compound at the selected concentration. Test compound and BACE were then mixed with a pipettor and incubated for 20 min at room temperature. To each well was then added 10 μL of the FS1 substrate working solution. The plates were then incubated for 1 hour at room temperature. […] The procedure for the blank was as follows. 15 μL of assay buffer was pipetted into each well to be used as a blank control. To each well was then added 2 μL of vehicle and 10 μL of FS1-substrate working solution. The plates were then incubated for 1 hour at room temperature. […] The procedure for the positive control was as follows: 15 μL of BACE working solution was pipetted into each well to be used as a positive control. To each well was then pipetted 2 μL of vehicle. Vehicle and BACE were then mixed with a pipettor and incubated for 20 min at room temperature. To each well was then added 10 μL of the FS1 substrate working solution. The plates were then incubated for 1 hour at room temperature. […] For test compounds, % inhibition was determined at each concentration as follows: [formula]

[1] = 0.3 μM test compound, read-out: % Inhibition (FS)
[2] = 1 μM test compound, read-out: % Inhibition (FS)
[3] = 3 μM test compound, read-out: % Inhibition (FS)

T1 sequence (P56817 46-501): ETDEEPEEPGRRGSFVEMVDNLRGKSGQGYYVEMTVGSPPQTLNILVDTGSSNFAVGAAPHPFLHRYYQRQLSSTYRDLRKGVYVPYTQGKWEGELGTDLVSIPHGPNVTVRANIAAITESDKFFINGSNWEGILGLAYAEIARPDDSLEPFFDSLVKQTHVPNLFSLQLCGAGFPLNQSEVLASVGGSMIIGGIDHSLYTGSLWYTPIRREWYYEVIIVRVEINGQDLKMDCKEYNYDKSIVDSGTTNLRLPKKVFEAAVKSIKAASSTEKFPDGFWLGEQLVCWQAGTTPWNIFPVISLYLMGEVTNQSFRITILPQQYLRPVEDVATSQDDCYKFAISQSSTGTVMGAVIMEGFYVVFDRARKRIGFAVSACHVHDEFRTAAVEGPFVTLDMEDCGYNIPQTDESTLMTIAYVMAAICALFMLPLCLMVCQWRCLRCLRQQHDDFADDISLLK

Row | % Inhibition (FS) 0.3 μM (0.3 μM test compound) [%] | % Inhibition (FS) 1 μM (1 μM test compound) [%] | % Inhibition (FS) 3 μM (3 μM test compound) [%] | % Inhibition (FS) (0.3 μM test compound) [%] | % Inhibition (FS) (1 μM test compound) [%] | % Inhibition (FS) (3 μM test compound) [%] | Structure (SMILES) | also measured
1 | – | – | – | – | – | – | NC1=Nc2ccc(Oc3ccccc3)cc2CN1Cc1cccc(N)c1 [Compound 811] | inhibition at 0.3 µM [1]: < 30%; inhibition at 1 µM [2]: < 30%; inhibition at 3 µM [3]: < 30%
2 | <30 | <30 | 90 | – | – | – | CN(C(=O)c1ccc(CN2Cc3cc(Oc4ccccc4)ccc3N=C2N)s1)C1CCCCC1 [Compound 503] | –
3 | – | – | – | <30 | <30 | <30 | CC(=O)N1CCC(C(=O)NCCN2Cc3cc(C4=CCCCC4)ccc3N=C2N)CC1 [Compound 705] | –
4 | <30 | <30 | 32 | – | – | – | CCCN(CC1CC1)C(=O)c1cccc(CN2Cc3cc(Oc4ccccc4)ccc3N=C2N)c1 [Compound 197] | –
5 | <30 | 35 | 79 | – | – | – | CN(C(=O)c1cccc(CN2Cc3cc(-c4ccccc4Oc4ccccc4)ccc3N=C2N)c1)C1CCCCC1 [Compound 326] | –
6 | <30 | 34 | 67 | – | – | – | NC1=Nc2ccc(Oc3ccccc3)cc2CN1Cc1cccc(C(=O)N2CCC3CCCCC3C2)c1 (centres unmarked) [Compound 193] | –
7 | – | – | – | 42 | 75 | 90 | NC1=Nc2ccc(-c3ccccc3F)cc2CN1CCNC(=O)CCC(F)(F)F [Compound 680] | –
8 | 72 | 94 | 112 | – | – | – | NC1=Nc2ccc(-c3ccccc3Cl)cc2CN1CCNC(=O)C1CCCC1 [Compound 650] | –
9 | <30 | <30 | <30 | – | – | – | CN(C(=O)c1cccc(CN2Cc3cc(Oc4ccccc4C(=O)N4CCCC4)ccc3N=C2N)c1)C1CCCCC1 [Compound 483] | –
10 | <30 | <30 | 41 | – | – | – | CC(C)(C)OC(=O)N1CCC(CN2Cc3cc(Oc4ccccc4)ccc3N=C2N)CC1 [Compound 509] | –
11 | – | – | – | <30 | 72 | 104 | COC1CCCC(C(=O)NCCN2Cc3cc(-c4ccccc4C)ccc3N=C2N)C1 (centres unmarked) [Compound 696] | –
12 | – | – | – | <30 | 56 | 97 | CNC(=O)C1CCC(N(C)C(=O)CCC(C2CCCCC2)N2Cc3cc(Oc4ccccc4)ccc3N=C2N)CC1 (centres unmarked) [Compound 765] | –
13 | <30 | 42 | 78 | – | – | – | NC1=Nc2ccc(Oc3ccccc3)cc2CN1C(CCCC(=O)N1CCCCC1)CCC(=O)N1CCCCC1 (centres unmarked) [Compound 452] | –
14 | – | – | – | 107 | 125 | 130 | CN(C(=O)CCC(C1CCOCC1)N1Cc2cc(Oc3ccccc3)ccc2N=C1N)C1CCC(C(=O)O)CC1 (centres unmarked) [Compound 743] | –
15 | – | – | – | <30 | <30 | 54 | CC(=O)N1CCC(C(=O)NCCN2Cc3cc(-c4ccccc4C)ccc3N=C2N)CC1 [Compound 695] | –
16 | – | – | – | – | – | – | NC1=Nc2ccc(Br)cc2CN1CCNC(=O)C1CCCCC1 [Compound 806] | inhibition at 0.3 µM [1]: < 30%; inhibition at 1 µM [2]: < 30%; inhibition at 3 µM [3]: < 30%
17 | <30 | <30 | 62 | – | – | – | NC1=Nc2ccc(Oc3ccccc3)cc2CN1[C@H](CNC(=O)C1CCCCC1)C1CCCCC1 [Compound 484] | –
18 | 94 | 116 | 123 | – | – | – | COc1ccccc1-c1ccc2c(c1)CN(Cc1cccc(C(=O)N(C)C3CCCCC3)c1)C(NC(C)=O)=N2 [Compound 607] | –
19 | <30 | <30 | <30 | – | – | – | NC1=Nc2ccc(Oc3ccccc3)cc2CN1Cc1cccc(C(=O)NC2CCCCC2)c1 [Compound 451] | –
20 | <30 | <30 | 31 | – | – | – | CN(C(=O)c1cccc(CN2Cc3cc(Oc4ccccc4-c4nc5ccccc5s4)ccc3N=C2N)c1)C1CCCCC1 [Compound 470] | –

Row | % Inhibition (FS) 0.3 μM (0.3 μM test compound) [%] | % Inhibition (FS) 1 μM (1 μM test compound) [%] | % Inhibition (FS) 3 μM (3 μM test compound) [%] | % Inhibition (FS) (0.3 μM test compound) [%] | % Inhibition (FS) (1 μM test compound) [%] | % Inhibition (FS) (3 μM test compound) [%] | Structure (SMILES) | also measured
21 | <30 | <30 | <30 | – | – | – | CN(C(=O)c1cccc(CN2Cc3cc(-c4ccc(C(N)=O)cc4)ccc3N=C2N)c1)C1CCCCC1 [Compound 162] | –
22 | – | – | – | 38 | <30 | 65 | CN(Cc1cc(-c2ccccc2)on1)C(=O)CC[C@@H](C1CCCCC1)N1Cc2cc(-c3ccccc3F)ccc2N=C1N [Compound 724] | –
23 | – | – | – | <30 | <30 | 52 | NC1=Nc2ccc(-c3ccccc3Cl)cc2CN1CCNC(=O)C1CCC(C(F)(F)F)CC1 (centres unmarked) [Compound 690] | –
24 | – | – | – | −48 | −38 | −25 | CN(C(=O)CCC(C1CCCCC1)N1Cc2cc(Oc3ccccc3)ccc2N=C1N)C1(C(=O)O)CCCCC1 (centres unmarked) [Compound 741] | –
25 | <30 | <30 | <30 | – | – | – | CCCC=Cc1ccc2c(c1)CN(CCNC(=O)c1cccc(C#N)c1)C(N)=N2 [Compound 568] | –
26 | – | – | <30 | – | – | – | CC(C)(C)c1ccc(C(=O)NCCN2Cc3cc(Oc4ccccc4)ccc3N=C2N)cc1 [Compound 156] | % Inhibition (FS) 10 μM (10 μM test compound): 40%
27 | <30 | <30 | <30 | – | – | – | CC(C)(C)C(=O)Nc1cccc(CN2Cc3cc(Oc4ccccc4)ccc3N=C2N)c1 [Compound 290] | –
28 | – | – | – | 31 | 64 | 93 | COc1cccc(F)c1-c1ccc2c(c1)CN(CCNC(=O)C1CCOCC1)C(N)=N2 [Compound 699] | –
29 | – | – | – | – | – | – | COc1ccccc1-c1ccc2c(c1)N=C(N)N(CCC(=O)NC1C3CC4CC(C3)CC1C4)C2 (centres unmarked) [Compound 617, N-Adamantan-2-yl-3-[2-amino-7-(2-methoxy-phenyl)-4H-quinazolin-3-yl]-propionamide] | inhibition at 0.3 µM (0.3 μM test compound, read-out: % Inhibition (FS) 0.3 μM): < 30%; inhibition at 1 µM (1 μM test compound, read-out: % Inhibition (FS) 1 μM): 34%; inhibition at 3 µM (3 μM test compound, read-out: % Inhibition (FS) 3 μM): 41%
30 | <30 | <30 | 67 | – | – | – | NC1=Nc2ccc(Oc3ccccc3)cc2CN1C1CCCCN(C(=O)C23CC4CC(CC(C4)C2)C3)C1 (centres unmarked) [Compound 550] | –
31 | – | – | – | 35 | <30 | <30 | NC1=Nc2ccc(-c3ccc4ccccc4c3)cc2CN1CCNC(=O)C12CC3CC(CC(C3)C1)C2 [Compound 665] | –
32 | <30 | <30 | <30 | – | – | – | CCCC(=O)NCCN1Cc2cc(-c3cncnc3)ccc2N=C1N [Compound 569] | –
33 | – | – | – | – | – | – | COc1cccc(CCNC(=O)CCC(C2CCCCC2)N2Cc3cc(F)ccc3N=C2N)c1 (centres unmarked) [Compound 810] | inhibition at 0.3 µM [1]: < 30%; inhibition at 1 µM [2]: < 30%; inhibition at 3 µM [3]: < 30%
34 | <30 | 39 | 38 | – | – | – | CN(C(=O)c1cccc(CN2Cc3cc(-c4ccc(C5CCCCC5)cc4)ccc3N=C2N)c1)C1CCCCC1 [Compound 267] | –
35 | – | – | – | 37 | <30 | <30 | CCCC(=O)NCCN1Cc2cc(-c3ccc4ccccc4c3)ccc2N=C1N [Compound 666] | –
36 | <30 | <30 | 95 | – | – | – | CSc1ccccc1-c1ccc2c(c1)CN(Cc1cccc(C(=O)N(C)C3CCCCC3)c1)C(N)=N2 [Compound 322] | –
37 | <30 | <30 | 41 | – | – | – | NC1=Nc2ccc(-c3cccc(C(F)(F)F)c3)cc2CN1CCNC(=O)Cc1ccccc1 [Compound 600] | –
38 | <30 | <30 | <30 | – | – | – | NC1=Nc2ccc(Oc3ccccc3)cc2CN1Cc1cccc(CNC(=O)C(F)(F)F)c1 [Compound 307] | –
39 | <30 | <30 | <30 | – | – | – | COc1ccc(Nc2ccc3c(c2)CN(Cc2cccc(C(=O)N(C)C4CCCCC4)c2)C(N)=N3)cc1 [Compound 434] | –
40 | <30 | <30 | <30 | – | – | – | CC(C)C(CC(=O)N(C(C)C)C1CCCCC1)N1Cc2cc(Oc3ccccc3)ccc2N=C1N (centres unmarked) [Compound 202] | –
